Reference: ChEMBL document CHEMBL6178014, “Discovery and Administration Optimization of Novel Selective CDK9 Inhibitor, 1-7a-B1, for Improved Pharmacokinetics and Antitumor Efficacy In Vivo” (J Med Chem, 2025)
Active and inactive are the calls of the source. The rule behind the calls is not given here.

What was measured:
PANC-1 = experiment: Cytotoxicity against human PANC-1 cells assessed as cell viability incubated for 48 hrs by CCK8 assay; assay type: functional, cell-based
[1] = Toxicity in female BALB/c nu-nu mouse xenografted with human HCT-116 cells assessed as histopathological changes in kidney at 20 mg/kg, po as submicron emulsion administered once daily for 3 weeks by H and E staining based analysis; assay type: organism-based; settings: in vivo, 504 h
HCT-116 [2] = experiment: Induction of apoptosis in human HCT-116 cells assessed as increase in total apoptotic cells incubated for 48 hrs by Annexin V-FITC/PI staining based flow cytometry analysis; assay type: functional, cell-based; settings: dose 100-400 nM
[3] = Cmax in Sprague-Dawley rat at 30 mg/kg, po as submicron emulsion measured after 24 hrs by LC-MS/MS analysis; assay type: ADME, organism-based; settings: in vivo
HCT-116 [4] = experiment: Antitumor activity against human HCT-116 cells xenografted in female BALB/c nu-nu mouse assessed as increase in PARP cleavage at 40 mg/kg, po incubated for 48 hrs by Western blot analysis; assay type: functional, organism-based
HCT-116 [5] = experiment: Downregulation of Bcl-2 mRNA level in human HCT-116 cells at 200 to 400 nM incubated for 48 hrs by qRT-PCR analysis; assay type: functional, cell-based; settings: dose 200-400 nM
[6] = Half life in Sprague-Dawley rat at 30 mg/kg, po measured after 24 hrs by LC-MS/MS analysis; assay type: ADME, organism-based; settings: in vivo
CDK9/cyclin T1 = CDK9/cyclin T1 (Homo sapiens, UniProt P50750); experiment: Inhibition of His-tagged full length human recombinant CDK9/cyclinT1 using KTFCGTPEYLAPEVRREPRILSEEEQEMFRDFDYIADWC as substrate incubated for 60 mins by ADP-Glo kinase assay; assay type: protein-complex assay
[7] = Oral bioavailability in Sprague-Dawley rat at 30 mg/kg measured after 24 hrs by LC-MS/MS analysis; assay type: ADME, organism-based; settings: in vivo
[8] = Volume of distribution in Sprague-Dawley rat at 2 mg/kg, iv measured after 24 hrs by LC-MS/MS analysis; assay type: ADME, organism-based; settings: in vivo
[9] = Cmax in Sprague-Dawley rat at 30 mg/kg, po measured after 24 hrs by LC-MS/MS analysis; assay type: ADME, organism-based; settings: in vivo
HCT-116 [10] = experiment: Antitumor activity against human HCT-116 cells xenografted in female BALB/c nu-nu mouse assessed as downregulation of Bcl-2 mRNA expression at 40 mg/kg, po incubated for 48 hrs by qRT-PCR analysis; assay type: functional, organism-based
[11] = Volume of distribution in Sprague-Dawley rat at 30 mg/kg, po as submicron emulsion measured after 24 hrs by LC-MS/MS analysis; assay type: ADME, organism-based; settings: in vivo
HCT-116 [12] = experiment: Induction of apoptosis in human HCT-116 cells assessed as increase in PARP cleavage incubated for 48 hrs by Western blot analysis; assay type: functional, cell-based; settings: dose 100-400 nM
[13] = biological target: Cellular tumor antigen p53 (Homo sapiens) (UniProt P04637); experiment: Induction of stabilization of wild type p53 in human HCT-116 cells at 100 to 400 nM incubated for 48 hrs by Western blot analysis; assay type: cell-based; settings: dose 100-400 nM
HCT-116 [14] = experiment: Induction of ROS accumulation in human HCT-116 cells at 100 to 400 nM incubated for 48 hrs by […] staining based flow cytometry analysis; assay type: functional, cell-based; settings: dose 100-400 nM
HCT-116 [15] = experiment: Induction of apoptosis in human HCT-116 cells assessed as increase in caspase-3 cleavage incubated for 48 hrs by Western blot analysis; assay type: functional, cell-based; settings: dose 100-400 nM
[16] = Toxicity in female BALB/c nu-nu mouse xenografted with human HCT-116 cells assessed as histopathological changes in kidney at 40 mg/kg, po administered once daily for 3 weeks by H and E staining based analysis; assay type: organism-based; settings: in vivo, 504 h
NCM460 = experiment: Cytotoxicity against human NCM460 cells assessed as cell viability incubated for 48 hrs by CCK8 assay; assay type: toxicity, cell-based; settings: ncm460, 48 h
[17] = MRT (infinity) in Sprague-Dawley rat at 2 mg/kg, iv measured after 24 hrs by LC-MS/MS analysis; assay type: ADME, organism-based; settings: in vivo
[18] = Tmax in Sprague-Dawley rat at 30 mg/kg, po measured after 24 hrs by LC-MS/MS analysis; assay type: ADME, organism-based; settings: in vivo
[19] = AUC (0 to t) in Sprague-Dawley rat at 2 mg/kg, iv measured after 24 hrs by LC-MS/MS analysis; assay type: ADME, organism-based; settings: in vivo
CYP2C9 = CYP2C9 (Homo sapiens, UniProt P11712); experiment: Inhibition of CYP2C9 in human liver microsome at 10 uM pre-incubated with compound for 10 mins in presence of NADPH-regenerating system by LC-MS/MS analysis relative to control; assay type: ADME; settings: liver microsomes
[20] = Toxicity in female BALB/c nu-nu mouse xenografted with human HCT-116 cells assessed as body weight loss at 40 mg/kg, po administered once daily for 3 weeks; assay type: organism-based; settings: in vivo, 504 h
HCT-116 [21] = experiment: Antitumor activity against human HCT-116 cells xenografted in female BALB/c nu-nu mouse assessed as tumor growth inhibition at 40 mg/kg, po administered once daily for 3 weeks by vernier caliper analysis; assay type: functional, organism-based
HCT-116 [22] = experiment: Induction of cell senescence in human HCT-116 cells at 100 to 400 nM incubated for 48 hrs by beta-galactosidase staining based analysis; assay type: functional; settings: dose 100-400 nM
HCT-116 [23] = experiment: Induction of apoptosis in human HCT-116 cells assessed as increase in apoptotic cells by measuring red fluorescence by TUNEL staining based fluorescence microscopic analysis; assay type: functional, cell-based; settings: dose 50-400 nM
[24] = Toxicity in female BALB/c nu-nu mouse xenografted with human HCT-116 cells assessed as histopathological changes in liver at 20 mg/kg, po as submicron emulsion administered once daily for 3 weeks by H and E staining based analysis; assay type: organism-based; settings: in vivo, 504 h
[25] = Tmax in Sprague-Dawley rat at 30 mg/kg, po as submicron emulsion measured after 24 hrs by LC-MS/MS analysis; assay type: ADME, organism-based; settings: in vivo
CYP2C19 = CYP2C19 (Homo sapiens, UniProt P33261); experiment: Inhibition of CYP2C19 in human liver microsome at 10 uM pre-incubated with compound for 10 mins in presence of NADPH-regenerating system by LC-MS/MS analysis relative to control; assay type: ADME; settings: liver microsomes
NCI-H226 = experiment: Cytotoxicity against human NCI-H226 cells assessed as cell viability incubated for 48 hrs by CCK8 assay; assay type: functional, cell-based
[26] = Stability in human plasma assessed as half life at 100 uM measured up to 120 mins by LC-MS/MS analysis; assay type: ADME, cell-free
[27] = Plasma protein binding in human at 100 uM measured up to 120 mins by LC-MS/MS analysis relative to control; assay type: ADME, cell-free; settings: read-out: PPB (converted)
CDK1/Cyclin A = CDK1/Cyclin A (Homo sapiens, UniProt P06493); experiment: Inhibition of CDK1/cyclA2 (unknown origin) by ADP-Glo assay; assay type: protein-complex assay
[28] = AUC (0 to t) in Sprague-Dawley rat at 30 mg/kg, po as submicron emulsion measured after 24 hrs by LC-MS/MS analysis; assay type: ADME, organism-based; settings: in vivo
[29] = biological target: Cyclin-dependent kinase 9 (Homo sapiens) (UniProt P50750); experiment: Inhibition of CDK9 in human HCT-116 cells assessed as reduction in phosphorylation of RNA polymerase II at Ser2 residue at 100 to 400 nM incubated for 48 hrs by Western blot analysis; assay type: cell-based; settings: dose 100-400 nM
HepG2 = experiment: Cytotoxicity against human HepG2 cells assessed as cell viability incubated for 48 hrs by CCK8 assay; assay type: functional, cell-based

Sequence of CYP2C9 (P11712 whole entry): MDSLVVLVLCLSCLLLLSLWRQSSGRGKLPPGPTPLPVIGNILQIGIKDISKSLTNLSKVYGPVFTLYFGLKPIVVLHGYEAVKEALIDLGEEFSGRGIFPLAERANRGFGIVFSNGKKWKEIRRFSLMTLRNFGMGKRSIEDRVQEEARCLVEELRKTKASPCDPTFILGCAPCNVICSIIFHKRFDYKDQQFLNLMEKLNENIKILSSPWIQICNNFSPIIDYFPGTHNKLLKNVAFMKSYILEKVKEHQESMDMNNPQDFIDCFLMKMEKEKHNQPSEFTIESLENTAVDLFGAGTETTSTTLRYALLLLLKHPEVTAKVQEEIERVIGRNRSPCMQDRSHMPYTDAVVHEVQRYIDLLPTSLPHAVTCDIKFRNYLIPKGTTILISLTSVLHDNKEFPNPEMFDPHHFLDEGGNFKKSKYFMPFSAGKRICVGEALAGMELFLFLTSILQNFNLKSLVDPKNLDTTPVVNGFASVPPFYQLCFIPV
Sequence of CDK9/cyclin T1 (O60563 whole entry): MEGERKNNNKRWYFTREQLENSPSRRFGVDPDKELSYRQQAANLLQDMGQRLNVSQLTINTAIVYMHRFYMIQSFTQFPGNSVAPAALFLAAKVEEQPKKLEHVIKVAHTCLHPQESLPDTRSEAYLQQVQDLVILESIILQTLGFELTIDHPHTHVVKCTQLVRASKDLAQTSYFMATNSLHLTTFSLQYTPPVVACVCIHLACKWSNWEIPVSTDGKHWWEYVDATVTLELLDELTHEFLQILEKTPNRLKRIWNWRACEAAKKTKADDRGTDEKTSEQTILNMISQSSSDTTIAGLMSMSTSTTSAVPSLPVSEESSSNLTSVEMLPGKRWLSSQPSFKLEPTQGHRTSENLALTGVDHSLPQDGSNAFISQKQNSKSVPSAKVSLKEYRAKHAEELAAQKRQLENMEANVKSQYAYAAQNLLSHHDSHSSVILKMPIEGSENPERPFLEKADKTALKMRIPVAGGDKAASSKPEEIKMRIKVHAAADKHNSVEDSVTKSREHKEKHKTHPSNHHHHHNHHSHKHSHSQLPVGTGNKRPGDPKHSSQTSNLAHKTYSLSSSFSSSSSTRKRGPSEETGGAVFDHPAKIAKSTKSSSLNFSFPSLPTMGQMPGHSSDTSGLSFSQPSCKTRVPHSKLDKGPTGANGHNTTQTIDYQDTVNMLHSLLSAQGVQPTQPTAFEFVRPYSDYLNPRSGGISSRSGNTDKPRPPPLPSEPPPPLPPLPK
Sequence of CDK9/cyclin T1 (P50750 whole entry): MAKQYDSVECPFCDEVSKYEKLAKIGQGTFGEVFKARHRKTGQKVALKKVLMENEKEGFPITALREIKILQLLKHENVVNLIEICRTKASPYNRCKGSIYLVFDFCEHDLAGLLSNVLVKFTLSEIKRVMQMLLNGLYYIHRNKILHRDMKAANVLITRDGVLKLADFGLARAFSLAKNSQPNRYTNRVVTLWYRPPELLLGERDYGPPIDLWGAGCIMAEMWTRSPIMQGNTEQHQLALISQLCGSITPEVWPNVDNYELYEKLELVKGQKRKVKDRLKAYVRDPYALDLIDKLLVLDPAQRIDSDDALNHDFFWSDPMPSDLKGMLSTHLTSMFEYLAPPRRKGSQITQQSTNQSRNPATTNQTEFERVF
Sequence of CDK1/Cyclin A (P06493 whole entry): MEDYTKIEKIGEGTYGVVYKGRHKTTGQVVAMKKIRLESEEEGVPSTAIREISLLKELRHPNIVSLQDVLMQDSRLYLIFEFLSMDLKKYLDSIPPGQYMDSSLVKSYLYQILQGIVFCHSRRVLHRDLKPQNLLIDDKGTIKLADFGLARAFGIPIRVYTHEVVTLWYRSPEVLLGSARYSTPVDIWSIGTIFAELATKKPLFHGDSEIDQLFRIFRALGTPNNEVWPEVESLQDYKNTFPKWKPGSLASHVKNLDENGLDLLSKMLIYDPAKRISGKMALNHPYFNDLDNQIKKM
Sequence of CDK1/Cyclin A (P20248 whole entry, further chain): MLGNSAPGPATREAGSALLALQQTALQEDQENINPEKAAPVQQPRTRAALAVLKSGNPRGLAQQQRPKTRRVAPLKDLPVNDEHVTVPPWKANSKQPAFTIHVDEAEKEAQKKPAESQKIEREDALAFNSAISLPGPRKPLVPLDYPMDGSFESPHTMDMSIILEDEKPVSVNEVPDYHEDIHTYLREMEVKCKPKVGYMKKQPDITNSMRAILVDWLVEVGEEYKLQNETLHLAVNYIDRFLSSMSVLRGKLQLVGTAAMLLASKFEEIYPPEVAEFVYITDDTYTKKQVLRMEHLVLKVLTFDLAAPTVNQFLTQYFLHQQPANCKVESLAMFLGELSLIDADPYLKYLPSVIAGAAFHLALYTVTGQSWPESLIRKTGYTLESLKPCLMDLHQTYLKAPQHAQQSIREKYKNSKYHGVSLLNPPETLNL
Sequence of Cellular tumor antigen p53 (Homo sapiens) (P04637 whole entry, looked up): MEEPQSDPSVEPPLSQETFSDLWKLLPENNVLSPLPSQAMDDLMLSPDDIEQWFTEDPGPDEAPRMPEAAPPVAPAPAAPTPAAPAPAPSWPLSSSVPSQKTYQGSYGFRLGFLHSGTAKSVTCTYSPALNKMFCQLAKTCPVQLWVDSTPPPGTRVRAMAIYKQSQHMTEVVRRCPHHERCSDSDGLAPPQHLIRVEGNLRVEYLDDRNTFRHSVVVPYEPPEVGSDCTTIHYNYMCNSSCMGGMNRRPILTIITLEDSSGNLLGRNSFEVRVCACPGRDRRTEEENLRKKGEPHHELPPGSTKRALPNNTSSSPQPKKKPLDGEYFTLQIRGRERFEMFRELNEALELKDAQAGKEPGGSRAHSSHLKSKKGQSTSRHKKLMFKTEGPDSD
Sequence of CYP2C19 (P33261 whole entry): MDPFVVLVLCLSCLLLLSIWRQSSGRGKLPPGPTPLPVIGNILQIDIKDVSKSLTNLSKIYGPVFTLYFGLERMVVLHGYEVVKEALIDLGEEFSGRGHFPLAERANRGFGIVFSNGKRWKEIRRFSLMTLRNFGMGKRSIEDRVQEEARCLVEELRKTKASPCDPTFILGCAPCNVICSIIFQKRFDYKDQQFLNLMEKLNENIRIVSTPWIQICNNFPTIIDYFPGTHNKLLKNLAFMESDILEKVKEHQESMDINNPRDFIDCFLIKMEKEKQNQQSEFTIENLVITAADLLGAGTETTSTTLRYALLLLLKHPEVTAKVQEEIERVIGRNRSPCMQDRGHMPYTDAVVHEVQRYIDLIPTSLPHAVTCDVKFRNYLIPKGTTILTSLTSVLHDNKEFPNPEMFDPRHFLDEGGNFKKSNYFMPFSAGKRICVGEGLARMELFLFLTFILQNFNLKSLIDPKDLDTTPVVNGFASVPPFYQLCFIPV
Sequence of Cyclin-dependent kinase 9 (Homo sapiens) (P50750 whole entry): as the sequence (P50750 whole entry) above

Cmax [3]: 1020 ng/mL | half-life [6]: 47 min | IC50 (CDK9/cyclin T1): 6.51 nM | bioavailability [7]: 14.7% | Vd [8]: 1.65 L/kg | Cmax [9]: 302 ng/mL | Vd [11]: 6.52 L/kg | Activity [13]: Active | MRT inf [17]: 20.1 min | Tmax [18]: 15 min | AUC(0-t) at 24 h [19]: 403 ng·h/mL | inhibition at 10 µM (CYP2C9): 15.9% | Tmax [25]: 30 min | inhibition at 10 µM (CYP2C19): 69.6% | half-life at 100 µM [26]: > 289 min | fraction unbound at 2 h, 100 µM [27]: 0.006 | IC50 (CDK1/Cyclin A): 3860 nM | AUC(0-t) at 24 h [28]: 1610 ng·h/mL | Activity [29]: Active
Compound: CC(C)Oc1cc(F)ccc1-c1ccnc(NC(=O)Nc2cccc(C(=O)N3CCN(C)CC3)c2)c1
Activity (PANC-1): Active | Activity [1]: Non-toxic | Activity (HCT-116 [2]): Dose-dependent-effect | Activity (HCT-116 [4]): Active | Activity (HCT-116 [5]): Active | Activity (HCT-116 [10]): Active | Activity (HCT-116 [12]): Dose-dependent-effect | Activity (HCT-116 [14]): Active | Activity (HCT-116 [15]): Dose-dependent-effect | Activity [16]: Non-toxic | Activity (NCM460): Toxic | Activity [20]: Non-toxic | Activity (HCT-116 [21]): Active | Activity (HCT-116 [22]): Active | Activity (HCT-116 [23]): Dose-dependent-effect | Activity [24]: Non-toxic | Activity (NCI-H226): Active | Activity (HepG2): Active
